Like-named read-outs stand apart in the source and are kept apart here. Marks after values point to notes of the source that are not given here.
Experiments:
CGR8-2Luc ESCs = tested on: CGR8-2Luc ESCs
From the text: (§1) Fig. 1 Synopsis of experimental protocols. The impact of compounds on neural promoter activity (FLuc, Firefly Luciferase under the control of the Tα1 promoter), general promoter activity (RLuc, Renilla Luciferase under the control of the EF1α promoter), and amount of DNA (PI, propidium iodide fluorescence in cell homogenates) was investigated in undifferentiated mouse embryonic pluripotent stem cells (ESCs) and on ESC-derived neurons. Arrows indicate the time of measurement of the three parameters. a Protocol for testing compounds effects on ESCs. CGR8-2Luc cells were plated on gelatin-coated 96-well plates in maintenance medium (BHK21 medium containing 10 % FCS, L-glutamine, NEAA, P/S, and LIF). Twenty-four hours later, cells were exposed to compounds for forty-eight hours. b Protocol for testing compounds on ESC-derived neurons. CGR8-2Luc cells were co-cultured with MS5 cells to induce neural differentiation in DMEM medium containing 15 % KO-serum, NEAA, β-mercaptoethanol, and P/S. On day 5, cells were detached and seeded on polyornithine-coated plates in DMEM medium containing N2 supplement, bFGF, and P/S; compound exposure was from day 6 to day 8
(§2) To test compounds on ESC-derived neurons, neuronal differentiation was carried out as previously described (Suter et al. [2009]; Xu et al. [2014]). Briefly, CGR8-2Luc cells were seeded on irradiated bone marrow-derived stromal MS5 cells and cultivated for 4 days in DMEM medium containing 15 % Knock-out™ Serum Replacement, non-essential amino acids, beta-mercaptoethanol, and penicillin/streptomycin. At day 5, cells were then re-plated (3 × 10^5 cells/cm^2) on polyornithine-coated 96-well plates in N2 medium containing DMEM, N2 supplement, penicillin/streptomycin, and 10 ng/ml basic human fibroblast growth factor (bFGF) (Invitrogen). […] To assess toxicity of compounds on undifferentiated pluripotent stem cells (ESCs), CGR8-2Luc cells were plated at 45,000 cells/cm^2 on 0.1 % gelatin-coated dishes in BHK21 medium, supplemented with 10 % fetal calf serum, L-glutamine, non-essential amino acids, penicillin/streptomycin, and leukemia inhibitory factor (LIF). After 24 h, compounds were added and incubated for 48 h, before luciferase expression and PI fluorescence were analyzed. In all experiments, methylmercury was used as a positive control at a concentration of 5 µM.
(§3) After measurement of luciferase activity, DNA quantity was determined by PI assay, as previously described (Xu et al. [2014]). PI was added to cell homogenates after the luciferase test, at a final concentration of 50 µg/ml and incubated for 2 h. After incubation, fluorescence intensity was measured on a Flexstation 3 microplate reader (Excitation: 544 nm ± 15 nm; Emission: 620 nm ± 15 nm). Results are expressed as percentage of control. Propidium iodide (PI) measures total DNA content as an approximation of the cell number. A decrease in PI fluorescence was interpreted as a decrease in cell number and therefore throughout the text referred to as cytotoxicity.
(§4) Lowest adverse effect level (LOAEL) was defined as the lowest tested concentrations that lead to a statistically significant decrease for a given read-out (FLuc, RLuc, and PI) compared to baseline. “Baseline” was not in all cases defined by untreated cells, but may also refer to, e.g., a state of increased activity due to low, non-toxic compound concentrations.

ESC-derived neurons = tested on: ESC-derived neurons
From the text: as §1, §2, §3, §4

[1] = tested on: Tubulin α1 (Tα1) promoter; assay: cells
From the text: (§5) Dual luciferase expressing CGR8-2Luc cells were obtained by transduction of mouse ESC CGR8 cells with the 2K7 EFS-Renilla Luciferase (RLuc)/Talpha1-Firefly Luciferase (FLuc) vector as previously described (Suter et al. [2006], [2009]); EFS corresponds to the short promoter of the eukaryotic translation elongation factor 1 alpha (EF1α), and Talpha1 to the Tubulin α1 (Tα1) promoter. Tα1 was selected as a promoter active in neurons, including early stages of neural differentiation. EF1α was originally selected to function as a constitutive promoter; however, it responds to cellular differentiation as well as to various chemicals, as previously shown (Kern et al. [2013]). Cells were cultured on 0.1 % gelatin-coated dishes in CGR8-2luc maintenance medium: BHK21 medium, supplemented with 10 % fetal calf serum, L-glutamine, non-essential amino acids, penicillin/streptomycin, and leukemia inhibitory factor (LIF). CGR8 cells were grown in a feeder-independent manner (embryonic pluripotent stem cells, ESCs) as described in protocol 1 (Fig. 1) before testing compounds of interest.
as §1, §2
(§6) Luciferase activities were measured with a Dual-Luciferase™ Reporter system kit. CGR8-2Luc ES cells were lysed in 96-well plates according to the manufacturer’s instructions. Luminescence measurements were performed on a Fluostar Optima reader. Luminescence counts were expressed as percentage of promoter activity normalized by comparison with the control wells treated by DMSO.

EF1α promoter = tested on: EF1α promoter
From the text: as §5, §1, §2, §6

[2] = tested on: Tubulin α1 (Tα1) promoter
From the text: as §5, §1, §2, §6

[3] = tested on: ESCs and ESC-derived neurons; assay: Dual luminescence reporter test system, all readouts in ESCs and ESC-derived neurons
From the text: as §1, with “neurons.” for “neurons. CGR8-2Luc cells were co-cultured with MS5 cells to induce neural differentiation in DMEM medium containing 15 % KO-serum, NEAA, β-mercaptoethanol, and P/S. On day 5, cells were detached and seeded on polyornithine-coated plates in DMEM medium containing N2 supplement, bFGF, and P/S; compound exposure was from day 6 to day 8”
as §2, with “At” for “To test compounds on ESC-derived neurons, neuronal differentiation was carried out as previously described (Suter et al. [2009]; Xu et al. [2014]). Briefly, CGR8-2Luc cells were seeded on irradiated bone marrow-derived stromal MS5 cells and cultivated for 4 days in DMEM medium containing 15 % Knock-out™ Serum Replacement, non-essential amino acids, beta-mercaptoethanol, and penicillin/streptomycin. At”
Luciferase activities were measured with a Dual-Luciferase™ Reporter system kit. CGR8-2Luc ES cells were lysed in 96-well plates according to the manufacturer’s instructions. Luminescence measurements were performed on a Fluostar Optima reader. Luminescence counts were expressed as percentage of promoter activity normalized by comparison with the control wells treated by DMSO. […] parameters were measured in homogenates of ESCs and in ESC-derived neurons: (1) FLuc, reflecting the activity of early neural promoter Tα1. FLuc increases during neuronal differentiation. Many neurotoxic compounds may affect FLuc expression, either through impact on neuronal differentiation, through changes of neuronal gene expression, or through killing of neurons.
as §3, with “PI” for “After measurement of luciferase activity, DNA quantity was determined by PI assay, as previously described (Xu et al. [2014]). PI”
To describe the shape of different concentration–response curves, arbitrary scores were assigned as follows: 0 for “no change,” 1 for “down-stroke,” 2 for “bimodal profile,” and 3 for “up-stroke” (Fig. S1). A curve was classified as “down-stroke” or “up-stroke” if the change in response values comparative to control was statistically significant (p value <0.05, one-way ANOVA with post hoc Dunnett) with an additional requirement of a 30 % decrease or increase of mean response value relative to controls, respectively. If the absolute change in mean response values was below 30 % the curve was classified as “no change.” A curve was classified as “bimodal” if first up-stroke and subsequently down-stroke was observed.

[4] = Table S1, three classes; ref per compound in the footnotes of Table S1; cited from earlier work
[5] = cited from earlier work
[6] = undifferentiated ESCs, 48 h exposure, PI assay (cytotoxicity)
[7] = ESC-derived neurons, 48 h exposure, PI assay (cytotoxicity)
[8] = ESC-derived neurons, 48 h exposure
[9] = undifferentiated ESCs, 48 h exposure
[10] = undifferentiated ESCs, 48 h exposure, lowest tested concentration with statistically significant decrease
[11] = reporter activity changes in the non-cytotoxic concentration range, highest possible number 4

Structure (SMILES) | class based on clinical evidence for neurotoxicity [4] | LOAEL ESC DNA (CGR8-2Luc ESCs; [6]) [µM] | LOAEL Neurons DNA (ESC-derived neurons; [7]) [µM] | LOAEL Neurons Tα1 [1, 8] [µM] | LOAEL Neurons EF1α (EF1α promoter; [8]) [µM] | LOAEL ESC EF1α (EF1α promoter; [9]) [µM] | LOAEL ESC Tα1 [2, 10] [µM] | Number of non-cytotoxic changes ([3]; mouse, 48 h) | result in the dual luminescence reporter test system [3] | LOAEL ESC DNA (CGR8-2Luc ESCs; mouse) [µM] | LOAEL Neurons DNA (ESC-derived neurons; mouse) [µM] | LOAEL Neurons Tα1 ([1]; mouse) [µM] | LOAEL ESC EF1α (EF1α promoter; mouse) [µM] | LOAEL Neurons EF1α (EF1α promoter; mouse) [µM] | LOAEL ESC Tα1 ([2]; mouse) [µM] | further results
O=C(O)c1cc[c]([Hg][Cl])cc1 [4-chloromercuric benzoic acid] | Possibly (developmental) | – | – | – | – | – | – | – | – | – | – | – | – | – | – | LOAEL ESC DNA (CGR8-2Luc ESCs): 5 µM; LOAEL Neurons DNA (ESC-derived neurons): 100 µM; LOAEL Neurons Tα1 [1]: 10 µM; LOAEL ESC EF1α (EF1α promoter): 5 µM; LOAEL Neurons EF1α (EF1α promoter): 100 µM; LOAEL ESC Tα1 [2]: 5 µM; Number of non-cytotoxic changes [3]: 1
CN(C)CCCN1c2ccccc2Sc2ccc(Cl)cc21 [Chlorpromazine] | Well-established (developmental) | 20 | 20 | 1 | 2 | 20 | 20 | 1 | – | – | – | – | – | – | – | –
OC[C@@H](O)[C@@H](O)[C@H](O)[C@H](O)CO [D-mannitol] | Non-neurotoxic | >50 | >50 | >50 | >50 | >50 | >50 | 0 | negative | – | – | – | – | – | – | –
O=C(O)c1cccnc1 [Nicotinic acid] | Non-neurotoxic | – | – | – | – | – | – | 0 | negative | >50 | >50 | >50 | >50 | >50 | >50 | –
Clc1cc(Cl)c(-c2cc(Cl)c(Cl)cc2Cl)cc1Cl [PCB-153] | Well-established (developmental) | – | – | – | – | – | – | – | – | – | – | – | – | – | – | effect on cell number in neurons (ESC-derived neurons): without affecting the number of cells; effect on neural promoter activity in neurons [1]: decreased; effect on general promoter activity in neurons (EF1α promoter): decreased; result in the dual luminescence reporter test system ([3]; ESCs and neurons, FLuc, RLuc, PI): potentially neurotoxic; Number of non-cytotoxic changes [3, 11]: 2; Concentration in humans (human exposure concentration) ([5]; human exposure concentration, ref Zimmer et al. ([2014])): 0.0003-0.002^k (human exposure concentration) µM
O=C1NS(=O)(=O)c2ccccc21 [Saccharin] | Non-neurotoxic | – | – | – | – | – | – | 0 | negative | >50 | >50 | >50 | >50 | >50 | >50 | Concentration in humans ([5]; ref Sweatman et al. ([1981])): 218^c µM
Nc1ccc(S(=O)(=O)Nc2ncccn2)cc1 [Sulfadiazine] | Possibly (developmental) | – | – | – | – | – | – | 0 | – | >50 | >50 | >50 | >50 | >50 | >50 | Concentration in humans ([5]; ref Zimmer et al. ([2014])): 320^k µM
CCC[C@H](NC(=O)[C@@H]1[C@H]2CCC[C@H]2CN1C(=O)[C@@H](NC(=O)[C@@H](NC(=O)c1cnccn1)C1CCCCC1)C(C)(C)C)C(=O)C(=O)NC1CC1 [Telaprevir] | – | 50 | 50 | 50 | – | 50 | 50 | 0 | – | – | – | – | – | – | – | LOAEL Neurons EF1α (EF1α promoter; mouse, 48 h): 50 µM; Concentration in humans ([5]; in vivo): 5.1^k µM
[CH3][Sn]([CH3])([CH3])[Cl] [Trimethyltin chloride] | Well-established (developmental) | 5 | 5 | 5 | 0.05 | 5 | 5 | – | – | – | – | – | – | – | – | EF1α promoter LOAEL in neurons (EF1α promoter; [8]): 50 nM; Number of non-cytotoxic changes [3, 11]: 1

Reference: PMC5225183, “Fingerprinting of neurotoxic compounds using a mouse embryonic stem cell dual luminescence reporter assay” (Archives of Toxicology, 2016)
